Experimental findings from paper PMC5564600 (Oncotarget, 2017) are described below.

Structures are written as SMILES.

Common to all, as to assay: biochemical
Holding throughout (assay type): binding

Assay [1] addresses T1, panel of 442 kinases (Homo sapiens, UniProt P00533, L858R/T790M).
T1 construct: purchased Ambit Biosciences (scanMAXX KINOMEscan)
Particulars: EGFR(L858R,T790M); for remaining activity at 1 µM: read-out: % of control at 1 µM.

Assay [2] has as its target T2, panel of 442 kinases (Homo sapiens, UniProt P78368).
T2 construct: purchased Ambit Biosciences (scanMAXX KINOMEscan)
Particulars: CSNK1G2; for remaining activity at 1 µM: read-out: % of control at 1 µM.

Assay [3] addresses T3, panel of 442 kinases (Homo sapiens, UniProt Q13237).
T3 construct: purchased Ambit Biosciences (scanMAXX KINOMEscan)
T3 sequence (Q13237 1-762): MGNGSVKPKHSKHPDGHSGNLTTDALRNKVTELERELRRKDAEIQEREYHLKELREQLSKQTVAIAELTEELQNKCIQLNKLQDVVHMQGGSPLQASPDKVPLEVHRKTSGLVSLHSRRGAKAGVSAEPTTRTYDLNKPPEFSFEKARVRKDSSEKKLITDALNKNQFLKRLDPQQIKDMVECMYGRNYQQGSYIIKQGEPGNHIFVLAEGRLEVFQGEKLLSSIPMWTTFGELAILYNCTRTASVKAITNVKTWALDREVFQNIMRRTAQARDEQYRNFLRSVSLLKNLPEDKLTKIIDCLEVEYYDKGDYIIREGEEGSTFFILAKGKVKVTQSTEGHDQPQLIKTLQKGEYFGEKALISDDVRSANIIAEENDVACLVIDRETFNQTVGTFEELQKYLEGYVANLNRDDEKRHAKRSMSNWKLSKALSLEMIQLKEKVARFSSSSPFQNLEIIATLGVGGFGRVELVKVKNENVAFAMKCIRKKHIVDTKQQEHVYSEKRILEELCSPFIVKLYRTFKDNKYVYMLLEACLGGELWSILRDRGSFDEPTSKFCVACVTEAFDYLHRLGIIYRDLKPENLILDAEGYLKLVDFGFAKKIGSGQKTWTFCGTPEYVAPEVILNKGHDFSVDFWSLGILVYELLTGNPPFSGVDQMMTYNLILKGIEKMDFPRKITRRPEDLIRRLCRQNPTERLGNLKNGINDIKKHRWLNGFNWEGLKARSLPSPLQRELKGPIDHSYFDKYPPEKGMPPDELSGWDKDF
Particulars: kinase PRKG2; for remaining activity at 1 µM: read-out: PRKG2 (% of control at 1 µM).

Assay [4] deals with T4, panel of 442 kinases (Homo sapiens, UniProt Q32MK0).
T4 construct: purchased Ambit Biosciences (scanMAXX KINOMEscan)
T4 sequence (Q32MK0 1-819): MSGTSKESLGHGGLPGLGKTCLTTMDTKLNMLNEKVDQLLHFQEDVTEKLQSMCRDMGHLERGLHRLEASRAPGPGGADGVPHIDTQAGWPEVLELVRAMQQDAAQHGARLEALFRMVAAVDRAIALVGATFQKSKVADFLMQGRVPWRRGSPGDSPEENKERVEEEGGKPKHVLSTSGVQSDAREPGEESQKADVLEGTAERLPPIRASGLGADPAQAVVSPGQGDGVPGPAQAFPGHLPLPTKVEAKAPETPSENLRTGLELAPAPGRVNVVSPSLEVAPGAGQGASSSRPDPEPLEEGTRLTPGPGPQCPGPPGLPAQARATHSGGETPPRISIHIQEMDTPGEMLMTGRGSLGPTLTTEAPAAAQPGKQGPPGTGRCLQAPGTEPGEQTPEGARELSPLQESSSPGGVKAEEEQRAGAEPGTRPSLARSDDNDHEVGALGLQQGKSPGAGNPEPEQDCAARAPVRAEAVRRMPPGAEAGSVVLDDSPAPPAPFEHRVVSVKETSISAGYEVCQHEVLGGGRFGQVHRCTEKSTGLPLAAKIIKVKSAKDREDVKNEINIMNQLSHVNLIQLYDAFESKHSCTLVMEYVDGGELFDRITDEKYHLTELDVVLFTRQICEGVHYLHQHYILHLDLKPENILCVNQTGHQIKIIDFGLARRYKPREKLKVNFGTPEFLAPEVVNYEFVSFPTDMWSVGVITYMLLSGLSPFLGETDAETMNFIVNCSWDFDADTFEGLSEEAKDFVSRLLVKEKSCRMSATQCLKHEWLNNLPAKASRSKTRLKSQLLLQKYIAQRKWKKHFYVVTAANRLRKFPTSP
Particulars: kinase MLCK; for remaining activity at 1 µM: read-out: % of control at 1 µM.

In assay [5] the target is T5, panel of 442 kinases (Homo sapiens, UniProt Q8N752).
T5 construct: purchased Ambit Biosciences (scanMAXX KINOMEscan)
T5 sequence (Q8N752 1-337): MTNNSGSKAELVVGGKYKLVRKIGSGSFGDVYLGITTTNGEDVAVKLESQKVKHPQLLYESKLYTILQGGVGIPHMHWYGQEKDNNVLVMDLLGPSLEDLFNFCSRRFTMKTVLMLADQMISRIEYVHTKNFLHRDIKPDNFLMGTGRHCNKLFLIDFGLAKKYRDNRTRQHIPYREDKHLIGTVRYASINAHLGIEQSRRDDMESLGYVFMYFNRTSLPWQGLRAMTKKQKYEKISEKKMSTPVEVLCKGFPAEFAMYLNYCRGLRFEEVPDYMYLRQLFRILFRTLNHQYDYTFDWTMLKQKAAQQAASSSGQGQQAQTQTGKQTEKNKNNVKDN
Particulars: CSNK1A1L; for remaining activity at 1 µM: read-out: % of control at 1 µM.

The target of assay [6] is T6, panel of 442 kinases (Homo sapiens, UniProt Q99640).
T6 construct: purchased Ambit Biosciences (scanMAXX KINOMEscan)
T6 sequence (Q99640 1-499): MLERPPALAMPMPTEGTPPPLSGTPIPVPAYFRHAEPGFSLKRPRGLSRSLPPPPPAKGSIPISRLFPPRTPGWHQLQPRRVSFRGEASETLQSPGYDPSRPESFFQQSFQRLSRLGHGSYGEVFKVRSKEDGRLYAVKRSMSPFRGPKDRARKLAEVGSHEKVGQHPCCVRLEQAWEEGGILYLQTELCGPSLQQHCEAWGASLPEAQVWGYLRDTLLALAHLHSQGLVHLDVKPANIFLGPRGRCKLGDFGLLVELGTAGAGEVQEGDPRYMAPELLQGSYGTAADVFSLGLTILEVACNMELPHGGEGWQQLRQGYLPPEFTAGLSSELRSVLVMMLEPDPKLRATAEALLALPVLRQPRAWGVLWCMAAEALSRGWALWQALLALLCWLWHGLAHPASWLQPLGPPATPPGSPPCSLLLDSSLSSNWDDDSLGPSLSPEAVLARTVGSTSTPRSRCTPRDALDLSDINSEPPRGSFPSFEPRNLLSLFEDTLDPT
Particulars: kinase PKMYT1; for remaining activity at 1 µM: read-out: PKMYT1 (% of control at 1 µM).

Setting [7] is: 10 µM, read-out: % of control at 10 µM.

T1 sequence (P00533 25-1210 T790M/L858R): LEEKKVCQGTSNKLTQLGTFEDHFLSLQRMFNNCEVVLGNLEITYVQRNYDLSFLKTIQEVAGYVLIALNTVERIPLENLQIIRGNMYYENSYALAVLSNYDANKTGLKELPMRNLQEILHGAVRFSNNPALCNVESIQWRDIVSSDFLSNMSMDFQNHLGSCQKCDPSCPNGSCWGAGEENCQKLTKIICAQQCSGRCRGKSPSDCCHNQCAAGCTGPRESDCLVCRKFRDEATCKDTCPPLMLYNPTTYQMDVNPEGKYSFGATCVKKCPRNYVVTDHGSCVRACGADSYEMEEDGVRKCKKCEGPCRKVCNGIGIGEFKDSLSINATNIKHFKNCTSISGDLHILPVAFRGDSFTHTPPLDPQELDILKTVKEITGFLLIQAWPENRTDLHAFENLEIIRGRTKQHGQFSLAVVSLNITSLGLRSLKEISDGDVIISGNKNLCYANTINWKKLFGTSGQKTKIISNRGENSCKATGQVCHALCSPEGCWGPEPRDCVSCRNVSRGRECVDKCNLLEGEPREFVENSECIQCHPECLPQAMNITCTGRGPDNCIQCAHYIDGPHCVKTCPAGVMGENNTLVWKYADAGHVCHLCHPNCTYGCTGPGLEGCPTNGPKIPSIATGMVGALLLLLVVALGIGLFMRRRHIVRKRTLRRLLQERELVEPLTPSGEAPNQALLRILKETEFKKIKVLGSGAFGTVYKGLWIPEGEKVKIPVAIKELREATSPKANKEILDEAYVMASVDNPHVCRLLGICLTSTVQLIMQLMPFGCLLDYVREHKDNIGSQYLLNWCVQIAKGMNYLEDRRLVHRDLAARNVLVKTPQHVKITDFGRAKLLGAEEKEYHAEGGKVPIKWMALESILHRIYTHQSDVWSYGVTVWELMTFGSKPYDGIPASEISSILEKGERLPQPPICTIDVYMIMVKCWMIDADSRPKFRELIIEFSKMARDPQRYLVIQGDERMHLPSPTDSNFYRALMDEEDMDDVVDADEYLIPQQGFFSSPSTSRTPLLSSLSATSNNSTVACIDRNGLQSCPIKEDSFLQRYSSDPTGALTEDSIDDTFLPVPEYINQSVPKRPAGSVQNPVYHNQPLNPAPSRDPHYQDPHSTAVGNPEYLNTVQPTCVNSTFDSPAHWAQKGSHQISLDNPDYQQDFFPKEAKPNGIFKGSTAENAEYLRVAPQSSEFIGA
T2 sequence (P78368 whole entry): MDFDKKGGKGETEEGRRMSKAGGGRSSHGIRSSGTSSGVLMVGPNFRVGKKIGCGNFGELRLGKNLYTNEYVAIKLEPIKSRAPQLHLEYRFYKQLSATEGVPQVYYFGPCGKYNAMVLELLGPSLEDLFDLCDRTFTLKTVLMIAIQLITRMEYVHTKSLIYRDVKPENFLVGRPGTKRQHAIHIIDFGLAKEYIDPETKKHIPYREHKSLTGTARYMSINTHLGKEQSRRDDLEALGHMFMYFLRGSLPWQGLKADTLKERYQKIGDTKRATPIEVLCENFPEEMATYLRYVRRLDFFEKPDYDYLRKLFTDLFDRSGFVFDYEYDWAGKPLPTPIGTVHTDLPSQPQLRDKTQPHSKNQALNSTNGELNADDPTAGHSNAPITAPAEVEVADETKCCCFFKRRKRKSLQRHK

With `COc1ncc(-c2ccc3nccc(-c4ccnnc4)c3c2)cc1NS(=O)(=O)c1ccc(F)cc1F` [Omipalisib], the remaining activity at 1 µM on panel of 442 kinases [1] worked out at 100%; on panel of 442 kinases [2], 100%; at panel of 442 kinases [3], 96%; on panel of 442 kinases [4], 100%; at panel of 442 kinases [5] it was 100%; on panel of 442 kinases [6], 81%.

In the case of `Cn1c(=O)n(-c2ccc(C(C)(C)C#N)cc2)c2c3cc(-c4cnc5ccccc5c4)ccc3ncc21` [Dactolisib, 2-methyl-2-[4-(3-methyl-2-oxo-8-quinolin-3-yl-2,3-dihydroimidazo[4,5-c]quinolin-1-yl)-phenyl] propionitrile], the remaining activity at 1 µM on panel of 442 kinases [1] was found to be 100%; on panel of 442 kinases [2], 80%; at panel of 442 kinases [3], 84%; at panel of 442 kinases [4] it was 80%; at panel of 442 kinases [5] it was 100%; at panel of 442 kinases [6] it was 75%.

For the molecule `Nc1cc(C(F)(F)F)c(-c2cc(N3CCOCC3)nc(N3CCOCC3)n2)cn1` [Buparlisib], the remaining activity at 1 µM was determined as 100% on panel of 442 kinases [1]; 100% at panel of 442 kinases [2]; 93% at panel of 442 kinases [3]; 100% at panel of 442 kinases [4]; 100% on panel of 442 kinases [5]; 100% at panel of 442 kinases [6]. The remaining activity at 10 µM on panel of 442 kinases [1] (setting [7]) is 100%; on panel of 442 kinases [2] (setting [7]) it was 100%; on panel of 442 kinases [3] (10 µM, read-out: PRKG2 (% of control at 10 µM)), 100%; on panel of 442 kinases [4] (setting [7]) it was 100%; on panel of 442 kinases [5] (setting [7]), 100%; at panel of 442 kinases [6] (10 µM, read-out: PKMYT1 (% of control at 10 µM)), 100%.

Take `FC(F)c1nc2ccccc2n1-c1nc(N2CCOCC2)nc(N2CCOCC2)n1` [ZSTK474, 2-(difluoromethyl)-1-[4,6-di(4-morpholinyl)-1,3,5-triazin-2-yl]-1H-benzimidazole]: the remaining activity at 1 µM at panel of 442 kinases [1] amounted to 100%; on panel of 442 kinases [2] it was 90%; at panel of 442 kinases [3], 95%; on panel of 442 kinases [4], 92%; on panel of 442 kinases [5] it was 100%; at panel of 442 kinases [6], 72%.
